Assay results from article PMC4766503, “A novel peptide with potent and broad-spectrum antiviral activities against multiple respiratory viruses” (Scientific Reports, 2016).
Peptide text beside a SMILES is read from it.

Legend:
[1] = tested on: endosomal acidification in H1N1-infected MDCK cells; assay type: cell-based, canine
H1N1 virus [2] = conditions: for 50% inhibitory concentration (IC50) against H1N1: virus, 1 h
H7N9 virus = tested on: H7N9 virus; set-up: species or system BALB/c mice; conditions: mouse, in vivo
[3] = mouse, in vivo
SARS-CoV [4] = conditions: in vivo
MDCK cells = conditions: 24 h
[5] = synthetic P9, water
[6] = tested on: influenza A virus H3N2, H5N1, H7N7 and H7N9; conditions: H7N7 and H7N9, 24 h
MERS-CoV S1 = MERS-CoV S1 (Middle East respiratory syndrome-related coronavirus, UniProt K9N5Q8)
H5N1 virus = tested on: H5N1 virus; set-up: species or system BALB/c mice; conditions: mouse, in vivo
SARS-CoV [7] = tested on: SARS-CoV
H1N1 viral HA = H1N1 viral HA (Influenza A virus, UniProt C3W5S1)
H1N1 virus [8] = tested on: H1N1 virus; set-up: species or system BALB/c mice; conditions: mouse, in vivo
MERS-CoV S2 = MERS-CoV S2 (Middle East respiratory syndrome-related coronavirus, UniProt K9N5Q8)
[9] = in vivo
[10] = tested on: HA-cell membrane fusion in 293FT cells expressing HA; conditions: low pH 5.0

Sequence of MERS-CoV S2 (K9N5Q8 752-1353 limits assumed): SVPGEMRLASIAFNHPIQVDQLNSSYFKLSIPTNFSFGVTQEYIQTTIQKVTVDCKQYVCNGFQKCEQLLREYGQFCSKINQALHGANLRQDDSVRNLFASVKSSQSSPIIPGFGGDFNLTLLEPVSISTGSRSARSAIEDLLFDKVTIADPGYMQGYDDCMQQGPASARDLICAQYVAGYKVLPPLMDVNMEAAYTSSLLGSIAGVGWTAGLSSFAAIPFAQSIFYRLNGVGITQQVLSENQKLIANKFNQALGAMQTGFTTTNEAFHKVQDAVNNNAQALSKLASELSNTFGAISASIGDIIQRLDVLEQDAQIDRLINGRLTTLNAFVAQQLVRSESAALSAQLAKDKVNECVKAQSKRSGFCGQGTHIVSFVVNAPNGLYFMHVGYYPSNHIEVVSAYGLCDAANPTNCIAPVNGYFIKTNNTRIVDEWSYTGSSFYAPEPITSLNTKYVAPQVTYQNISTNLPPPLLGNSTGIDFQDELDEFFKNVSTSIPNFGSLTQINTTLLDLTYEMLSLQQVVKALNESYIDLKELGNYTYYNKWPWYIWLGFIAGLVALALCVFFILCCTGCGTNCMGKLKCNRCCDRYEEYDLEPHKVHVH
Sequence of MERS-CoV S1 (K9N5Q8 18-751 limits assumed): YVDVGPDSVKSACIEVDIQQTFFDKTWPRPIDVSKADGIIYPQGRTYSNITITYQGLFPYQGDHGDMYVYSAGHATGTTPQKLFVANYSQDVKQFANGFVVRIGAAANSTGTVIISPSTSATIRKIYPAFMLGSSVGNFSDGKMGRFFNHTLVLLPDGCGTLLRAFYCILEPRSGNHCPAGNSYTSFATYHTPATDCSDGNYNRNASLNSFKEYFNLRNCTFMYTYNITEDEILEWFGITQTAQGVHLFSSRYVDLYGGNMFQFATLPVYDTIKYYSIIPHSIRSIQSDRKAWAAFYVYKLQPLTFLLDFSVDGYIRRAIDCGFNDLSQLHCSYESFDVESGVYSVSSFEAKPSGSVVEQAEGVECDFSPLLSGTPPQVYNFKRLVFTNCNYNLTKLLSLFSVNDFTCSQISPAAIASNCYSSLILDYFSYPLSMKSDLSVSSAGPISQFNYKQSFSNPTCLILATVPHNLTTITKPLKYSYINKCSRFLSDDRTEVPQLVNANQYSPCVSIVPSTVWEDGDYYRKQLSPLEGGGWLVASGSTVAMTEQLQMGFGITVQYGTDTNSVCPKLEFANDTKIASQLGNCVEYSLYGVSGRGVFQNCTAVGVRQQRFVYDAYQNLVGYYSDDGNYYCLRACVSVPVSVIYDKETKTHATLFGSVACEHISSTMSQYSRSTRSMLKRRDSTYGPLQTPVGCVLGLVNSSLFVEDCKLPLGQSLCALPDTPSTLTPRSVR
Sequence of H1N1 viral HA (C3W5S1 entry or part of it, added parts left off): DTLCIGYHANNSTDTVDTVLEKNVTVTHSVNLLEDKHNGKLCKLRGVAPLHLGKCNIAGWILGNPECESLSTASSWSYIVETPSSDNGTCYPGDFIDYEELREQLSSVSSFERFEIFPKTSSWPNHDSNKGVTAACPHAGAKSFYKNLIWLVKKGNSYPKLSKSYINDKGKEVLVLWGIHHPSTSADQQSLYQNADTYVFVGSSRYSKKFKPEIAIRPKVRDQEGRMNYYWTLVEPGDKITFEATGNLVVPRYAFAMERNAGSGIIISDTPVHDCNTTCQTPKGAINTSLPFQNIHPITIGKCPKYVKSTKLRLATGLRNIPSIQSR

## Cl.N [NH4Cl, ammonium chloride, reference compound]
[1]
  pH lowering (acidification) in endosomes: acidification was abolished

## CC[C@H](C)[C@H](NC(=O)[C@H](C)NC(=O)CNC(=O)[C@@H](N)CC(N)=O)C(=O)N[C@@H](CS)C(=O)N[C@@H](Cc1c[nH]c2ccccc12)C(=O)NCC(=O)N1CCC[C@H]1C(=O)N[C@@H](CS)C(=O)N1CCC[C@H]1C(=O)N[C@H](C(=O)N[C@@H](C)C(=O)N[C@@H](Cc1ccccc1)C(=O)N[C@@H](CCCNC(=N)N)C(=O)N[C@@H](CCC(N)=O)C(=O)N[C@H](C(=O)NCC(=O)N[C@@H](CC(N)=O)C(=O)N[C@@H](CS)C(=O)NCC(=O)N[C@@H](Cc1c[nH]cn1)C(=O)N[C@@H](Cc1ccccc1)C(=O)N[C@@H](CCCCN)C(=O)N[C@H](C(=O)N[C@@H](CCCNC(=N)N)C(=O)N[C@@H](CS)C(=O)N[C@@H](CS)C(=O)N[C@@H](CCCCN)C(=O)N[C@H](C(=O)N[C@@H](CCCNC(=N)N)C(=O)N[C@@H](CC(=O)O)C(=O)N[C@@H](CCC(=O)O)C(=O)N[C@@H](CC(=O)O)C(=O)O)[C@@H](C)CC)C(C)C)[C@@H](C)CC)[C@@H](C)O [Peptide P9-aci-1] (H-NGAICWGPCPTAFRQIGNCGHFKVRCCKIRDED-OH)
H1N1 virus [2]
  50% inhibitory concentration (IC50) against H1N1: > 100 µg/mL
[1]
  pH lowering (acidification) in endosomes: unaffected

## CC[C@H](C)[C@H](NC(=O)[C@H](C)NC(=O)CNC(=O)[C@@H](N)CC(N)=O)C(=O)N[C@@H](CS)C(=O)N[C@@H](Cc1c[nH]c2ccccc12)C(=O)NCC(=O)N1CCC[C@H]1C(=O)N[C@@H](CS)C(=O)N1CCC[C@H]1C(=O)N[C@H](C(=O)N[C@@H](C)C(=O)N[C@@H](Cc1ccccc1)C(=O)N[C@@H](CCCNC(=N)N)C(=O)N[C@@H](CCC(N)=O)C(=O)N[C@H](C(=O)NCC(=O)N[C@@H](CC(N)=O)C(=O)N[C@@H](CS)C(=O)NCC(=O)N[C@@H](Cc1c[nH]cn1)C(=O)N[C@@H](Cc1ccccc1)C(=O)N[C@@H](CCCCN)C(=O)N[C@H](C(=O)N[C@@H](CCCNC(=N)N)C(=O)N[C@@H](CS)C(=O)N[C@@H](CS)C(=O)N[C@@H](CCCCN)C(=O)N[C@H](C(=O)N[C@@H](CCCNC(=N)N)C(=O)O)[C@@H](C)CC)C(C)C)[C@@H](C)CC)[C@@H](C)O [Peptide P9] (H-NGAICWGPCPTAFRQIGNCGHFKVRCCKIR-OH)
H1N1 viral NA
  binding to NA: not NA
H7N9 virus
  mice protected from lethal H7N9 challenge, prophylaxis: 50%
  mice protected from lethal H7N9 challenge, therapy: 50%
H1N1 virus [2]
  antiviral activity among short peptides: strongest antiviral activity
  50% inhibitory concentration (IC50) against H1N1: 1.2 µg/mL
[3]
  food consumption or sickness: no obvious reduction of food consumption or sickness
[3]; 50 mg/kg
  body weight loss, i.n.: less than 10%
[3]; ip, 500 mg/kg
  body weight loss, i.p.: less than 10%
SARS-CoV [4]
  virus infection in mouse lungs: significantly inhibited
MDCK cells
  50% toxic concentration (TC50): 380 µg/mL
[5]
  solubility and stability in water: highly soluble and stable in water
[6]
  IC50s against H3N2, H5N1, H7N7 and H7N9: 1.5 to 4.8 µg/mL
MERS-CoV S1
  binding to S1 of MERS-CoV: not S1
H5N1 virus
  mice protected from lethal H5N1 challenge, prophylaxis: 44%
  mice protected from lethal H5N1 challenge, therapy: 50%
SARS-CoV [7]
  inhibition of SARS-CoV infection: more than 95%
SARS-CoV [7]; 24 h
  IC50 against SARS-CoV: about 5 μg/ml
H1N1 viral HA
  binding to HA: bound to HA
H1N1 virus [8]
  mice protected from lethal challenge, P9 given 2 h before challenge: 60%
  mice protected from lethal challenge, P9 given 4 h before challenge: 30%
  mice protected from lethal challenge, P9 given 8 h before challenge: 20%
  survival rate, prophylactic: 100%
  survival rate, therapeutic: 60%
  viral loads in lung tissues: significantly lower
MERS-CoV S2
  binding to S2 of MERS-CoV: bound to S2
[9]
  P9 signal on surface of mouse bronchial tubes after administration: almost undetectable level
[1]
  pH lowering (acidification) in endosomes: acidification was abolished
[10]
  HA-cell membrane fusion (polykaryon formation): did not directly inhibit
MERS-CoV
  inhibition of MERS-CoV infection: more than 95%
MERS-CoV; 24 h
  IC50 against MERS-CoV: about 5 μg/ml

## CC(=O)N[C@H]1[C@H]([C@H](O)[C@H](O)CO)OC(C(=O)O)=C[C@@H]1N=C(N)N [Zanamivir, reference compound]
H7N9 virus
  mice protected from lethal H7N9 challenge, prophylaxis: 60%
  mice protected from lethal H7N9 challenge, therapy: 70%
H5N1 virus
  mice protected from lethal H5N1 challenge, prophylaxis: 50%
  mice protected from lethal H5N1 challenge, therapy: 60%
H1N1 virus [8]
  survival rate, therapeutic: 80%

## CO/C1=C\C(C)=C\[C@@H](C)[C@@H](O)[C@@H](C)C/C(C)=C/C=C/[C@H](OC)[C@@H]([C@@H](C)[C@@H](O)[C@H](C)[C@@]2(O)C[C@@H](O)[C@H](C)[C@@H](C(C)C)O2)OC1=O [Bafilomycin A1, reference compound]
[1]
  pH lowering (acidification) in endosomes: acidification was abolished
